Measured values as given in US11882828B2, “Mosquito vector control compositions, methods and products utilizing same” (priority 2015, dated 2024).

Experiments:
Aedes aegypti [1] = experiment: whole plant or invertebrate; conditions: for mortality at 5 ppm: Aedes aegypti, 48 h
Protocol: (§1) The individual wells of six (6) well tissue culture plates were treated with 250 μl of an ethanol solution containing a test compound at a defined concentration. Once the deposits were dry, ten non-blood fed adult female Aedes aegypti or Anopheles stephensi (each between two to five day old) were added to each well, and sustained with a 10% sucrose solution in a cotton wool plug.
(§2) Assessment of the mortality was carried out at 48 hours.
(§3) Each treatment was replicated twice, with the mean mortality recorded.

Anopheles stephensi [2] = experiment: whole plant or invertebrate; conditions: for mortality at 5 ppm: Anopheles stephensi, 48 h
Protocol: as §1, §2, §3

[3] = system: Aedes aegypti (Yellow fever mosquito); experiment: whole plant or invertebrate; conditions: for pest or weed control at 20 ppm / mortality at 20 ppm: Aedes aegypti; for pest or weed control at 20 ppm: 1 h, read-out: Knockdown; for mortality at 20 ppm: 48 h
Protocol: […] Once the deposits were dry, five non-blood fed adult female Aedes aegypti (between two to five days old) were added to each well, and sustained with a 10% sucrose solution in a cotton wool plug. Assessment of the knockdown after 1 hour, and mortality after 48 hours was carried out.
(§4) In case of multiple tests, the mean value is reported.

Aedes aegypti [4] = experiment: Example B7: evaluation of insecticide impregnated polymer surfaces; format: in vivo; conditions: AI content 2 wt %, after one hour
Description: (§5) Preparation of polymeric sheets: Certain methoxyacrylate were Impregnated into three polymers: LDPE (low density polyethylene), HDPE (high density polyethylene) and PP (polypropylene) in different concentrations by mixing the respective polymer with a compound at high temperatures and the resultant polymeric material were then mould into thin discs or plaques.
(§6) Twenty four hours prior to the relevant assessment intervals, three to five day old non-blood fed adult mosquitoes were taken from the culture and lightly anaesthetised with carbon dioxide. Ten females were selected and placed in a 250 ml plastic cup, retained with a net lid, provided with a 10% sucrose solution soaked in a cotton wool bung and held under culturing environmental conditions.
(§7) After twenty four hours, impregnated polymer sheets (measuring about 150 mm in diameter and about 0.1 mm in thickness) were removed from storage and wrapped around the glazed side of an 11 cm ceramic tile and held in place with an elastic band. A cup of the pre-selected mosquitoes were again lightly anaesthetised with carbon dioxide and transferred from the holding cup to the base of a 9 cm plastic Petri dish. The relevant impregnated polymer sheet was placed over the Petri dish and held in place with an elastic band. Once the mosquitoes had recovered from the anaesthetic, ca. 1 minute, the impregnated polymer sheet was placed on a holding rack, such that treated side was at an angle of […] to the horizontal.
(§8) After one hour an assessment of mosquito knockdown was made. A mosquito was said to be knocked down if it was unable to right itself once it had fallen over. The mosquitoes were lightly anaesthetised again, and removed from the Petri dish exposure chamber and returned to the holding cups. The mosquitoes were supplied with a 10% sucrose solution soaked in a cotton wool bung and held under culturing environmental conditions. An assessment of mortality was made 24 hours after exposure. A mosquito was said to be dead if it is unable to right itself once it had fallen over.

Anopheles stephensi [5] = experiment: as above; format: in vivo; conditions: AI content 2 wt %, after one hour
Description: as §5, §6, §7, §8

[6] = system: Anopheles stephensi (Indian malaria mosquito); experiment: whole plant or invertebrate; conditions: for pest or weed control at 20 ppm / mortality at 20 ppm: Anopheles stephensi; for pest or weed control at 20 ppm: 1 h, read-out: Knockdown; for mortality at 20 ppm: 48 h
Protocol: […] Once the deposits were dry, five non-blood fed adult female Anopheles stephensi (between two to five days old) were added to each well, and sustained with a 10% sucrose solution in a cotton wool plug. Assessment of the knockdown after 1 hour, and mortality after 48 hours was carried out.
as §4

[7] = HDPE, polymer 8 to 12 weeks old
[8] = LDPE, polymer 8 to 12 weeks old

Compound | mortality at 5 ppm (Aedes aegypti [1]) [%] | mortality at 5 ppm (Anopheles stephensi [2]) [%] | pest or weed control at 20 ppm [3] [%] | mortality at 20 ppm [3] [%] | pest or weed control at 20 ppm [6] [%] | mortality at 20 ppm [6] [%] | further results
CO/C=C(/C(=O)OC)c1ccccc1Oc1ncnc(C(C)(C)C)n1 [Compound 5, Methyl (E)-2-[2-[(4-tert-butyl-1,3,5-triazin-2-yl)oxy]phenyl]-3-methoxy-prop-2-enoate] | 85 | 100 | 100 | 100 | 100 | 100 | knock-down (Aedes aegypti [4]; HDPE, polymer 2 to 4 weeks old): 33%; knock-down (Aedes aegypti [4]; HDPE, polymer 6 to 8 weeks old): 60%; knock-down (Aedes aegypti [4]; LDPE, polymer 2 to 4 weeks old): 13%; knock-down (Aedes aegypti [4]; LDPE, polymer 6 to 8 weeks old): 85%; knock-down (Aedes aegypti [4]; PP, polymer 2 to 4 weeks old): 80%; knock-down (Aedes aegypti [4]; PP, polymer 6 to 8 weeks old): 70%; knock-down (Anopheles stephensi [5]; HDPE, polymer 2 to 4 weeks old): 100%; knock-down (Anopheles stephensi [5]; [7]): 50%; knock-down (Anopheles stephensi [5]; LDPE, polymer 2 to 4 weeks old): 80%; knock-down (Anopheles stephensi [5]; [8]): 70%; knock-down (Anopheles stephensi [5]; PP, polymer 2 to 4 weeks old): 90%; knock-down (Anopheles stephensi [5]; PP, polymer 8 to 12 weeks old): 20%
CO/C=C(/C(=O)OC)c1ccccc1CO/N=C(\C)C(C)C [Compound 12] | 43 | 100 | 100 | 100 | 100 | 100 | knock-down (Aedes aegypti [4]; HDPE, polymer 2 to 4 weeks old): 97%; knock-down (Aedes aegypti [4]; HDPE, polymer 6 to 8 weeks old): 100%; knock-down (Aedes aegypti [4]; LDPE, polymer 2 to 4 weeks old): 100%; knock-down (Aedes aegypti [4]; LDPE, polymer 6 to 8 weeks old): 95%; knock-down (Aedes aegypti [4]; PP, polymer 2 to 4 weeks old): 100%; knock-down (Aedes aegypti [4]; PP, polymer 6 to 8 weeks old): 100%; knock-down (Anopheles stephensi [5]; HDPE, polymer 2 to 4 weeks old): 100%; knock-down (Anopheles stephensi [5]; [7]): 100%; knock-down (Anopheles stephensi [5]; LDPE, polymer 2 to 4 weeks old): 100%; knock-down (Anopheles stephensi [5]; [8]): 30%; knock-down (Anopheles stephensi [5]; PP, polymer 2 to 4 weeks old): 100%; knock-down (Anopheles stephensi [5]; PP, polymer 8 to 12 weeks old): 100%
CO/C=C(/C(=O)OC)c1ccccc1Oc1cc(C(F)(F)C(F)(F)F)ncn1 [Compound 17] | 5 | 55 | 100 | 100 | 100 | 100 | knock-down (Aedes aegypti [4]; LDPE, polymer 4 to 6 weeks old): 100%
CO/C=C(/C(=O)OC)c1ccccc1COc1ncccc1C(F)(F)F [Compound 19, Methyl (E)-3-methoxy-2-[2-[[3-(trifluoromethyl)-2-pyridyl]oxymethyl]phenyl]prop-2-enoate] | 75 | 100 | 20 | 100 | 40 | 100 | 
CO/C=C(/C(=O)OC)c1ccccc1COc1nccnc1C(F)(F)F [Compound 20, Methyl (E)-3-methoxy-2-[2-[[3-(trifluoromethyl)pyrazin-2-yl]oxymethyl]phenyl]prop-2-enoate] | 70 | 100 | 100 | 100 | 100 | 100 | 
CO/C=C(/C(=O)OC)c1ccccc1COc1ncc(C(F)(F)F)cc1C(F)(F)F [Compound 21] | 85 | 100 | 50 | 90 | 100 | 100 | 
CO/C=C(/C(=O)OC)c1ccccc1COc1nc(F)c(F)cc1F [Compound 23] | 60 | 93 | 100 | 100 | 20 | 100 | 
Clc1ccc(C(c2ccc(Cl)cc2)C(Cl)(Cl)Cl)cc1 [DDT, reference compound] |  |  |  |  |  |  | mortality (Aedes aegypti [1]; 5 ppm, at 48 hours): 85%; mortality (Anopheles stephensi [2]; 5 ppm, at 48 hours): 59%; Knockdown ([3]; 10 ppm, after 1 hour): 35%; mortality ([3]; 10 ppm, after 48 hours): 90%; Knockdown ([6]; 10 ppm, after 1 hour): 70%; mortality ([6]; 10 ppm, after 48 hours): 80%
CO/C=C(/C(=O)OC)c1ccccc1COc1ncccc1Cl [F, reference compound] | 30 | 20 | 0 | 60 | 60 | 100 | 
